Measured values taken from patent publication US20230265151A1, “GIP/GLP1 CO-AGONIST COMPOUNDS” (priority 2020, published 2023).
Like-named read-outs stand apart in the source and are kept apart here.

Assays:
[1] = target: T1, human Gcg receptor (hGcgR) (Homo sapiens, UniProt P47871); assay: [125I]-Glucagon binding, SPA with membranes of HEK293 cells expressing hGcgR; details: human GcgR; geometric mean (SEM, n); read-out: Binding Affinity Ki, nM (SEM, n) hGCGR
T1 construct: expressed in transfected cells; crude membranes
T1 sequence (P47871 26-477): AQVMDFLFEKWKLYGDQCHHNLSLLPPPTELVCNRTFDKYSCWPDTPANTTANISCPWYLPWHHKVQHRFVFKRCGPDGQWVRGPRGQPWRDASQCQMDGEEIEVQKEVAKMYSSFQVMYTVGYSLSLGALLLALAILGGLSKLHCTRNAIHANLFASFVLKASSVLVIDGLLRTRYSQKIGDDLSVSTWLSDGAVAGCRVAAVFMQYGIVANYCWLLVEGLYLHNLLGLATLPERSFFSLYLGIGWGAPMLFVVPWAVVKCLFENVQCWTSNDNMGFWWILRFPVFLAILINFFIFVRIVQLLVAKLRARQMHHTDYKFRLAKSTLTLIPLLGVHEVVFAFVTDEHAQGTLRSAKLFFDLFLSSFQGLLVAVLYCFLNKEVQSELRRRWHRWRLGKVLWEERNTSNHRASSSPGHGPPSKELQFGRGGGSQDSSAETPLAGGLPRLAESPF
Procedure: Two methods are used for the preparation of crude cell membranes.
Method 1: Frozen cell pellets are lysed on ice in hypotonic buffer containing 50 mM Tris HCl, pH 7.5, and Roche Complete™ Protease Inhibitors with EDTA. […] The homogenate is centrifuged at 4° C. at 1100 × g for 10 minutes. The supernatant is collected and stored on ice while the pellets are resuspended in homogenization buffer and rehomogenized as described above. The homogenate is centrifuged at 1100 × g for 10 minutes. The second supernatant is combined with the first supernatant and centrifuged at 35000 × g for 1 hour at 4° C. The resulting membrane pellet is resuspended in homogenization buffer containing protease inhibitors at approximately 1 to 3 mg/mL, quick frozen in liquid nitrogen and stored as aliquots in a -80° C. freezer until use.
The homogenate is centrifuged at 4° C. at 1800 × g for 15 minutes. The supernatant is collected and stored on ice while the pellets are resuspended in homogenization buffer (without DNAse I) and rehomogenized as described above. The homogenate is centrifuged at 1800 × g for 15 minutes. The second supernatant is combined with the first supernatant and centrifuged an additional time at 1800 × g for 15 minutes. The overall supernatant is then centrifuged at 25000 × g for 30 minutes at 4° C. The resulting membrane pellet is resuspended in homogenization buffer (without DNAse I) containing protease inhibitors at approximately 1 to 3 mg/mL and stored as aliquots in a -80° C. freezer until use.
The human Gcg receptor binding assays are performed using a Scintillation Proximity Assay (SPA) format with wheat germ agglutinin (WGA) beads (Perkin Elmer). The binding buffer contains 25 mM 4-(2-hydroxyethyl)-1-piperazineethanesulfonic acid (HEPES), pH 7.4, 2.5 mM CaCl2, 1 mM MgCh, 0.1% (w/v) bacitracin (Research Products), 0.003% (w/v) Polyoxyethylenesorbitan monolaurate (TWEEN®-20), and Roche Complete™ Protease Inhibitors without EDTA. […] Next, 5 µL serially diluted compound or DMSO is transferred into Corning® 3632 clear bottom assay plates containing 45 µL assay binding buffer or unlabeled Gcg control (non-specific binding or NSB, at 1 µM final). […] Plates are sealed and mixed on a plate shaker (setting 6) for 1 minute and read with a PerkinElmer Trilux MicroBeta® scintillation counter after 12 hours of incubation/settling time at room temperature.
Raw CPM data for concentration curves of peptides, Gcg, GLP-1, or GIP are converted to percent inhibition by subtracting nonspecific binding (binding in the presence of excess unlabeled Gcg, GLP-1, or GIP, respectively) from the individual CPM values and dividing by the total binding signal, also corrected by subtracting nonspecific binding. Data are analyzed using four-parameter (curve maximum, curve minimum, IC50, Hill slope) nonlinear regression routines (Genedata Screener, version 12.0.4, Genedata AG, Basal, Switzerland). […] Values for Ki are reported as the geometric mean, with error expressed as the standard error of the mean (SEM) and n is equal to the number of independent replicates (determined in assays performed on different days). Geometric Means are calculated as follows: […]
The Ki Ratio (Ki for native control peptide/Ki for test compound) at each receptor and each species is calculated. The Ki Ratio is a rapid indication of the apparent affinity of a peptide compared to the native control peptide.
n=⅟x means that only one value out of the total number of replicates (x) is used to express the mean. SEM is only calculated when n=2 or greater non-qualified results exist. Means are expressed as GeoMetric means with the standard error of the mean (SEM) and the number of replicates (n) indicated in parenthesis.

hGIPR = target: T2, hGIPR (Homo sapiens, UniProt P48546); assay: Functional cAMP formation (HTRF) in HEK-293 clonal cells expressing hGIPR, 0.1% bovine casein, without or with 1.0% human serum albumin; assay type: cell-based; details: for EC50: geometric mean, read-out: hGIPR EC50, nM (SEM, n); for Emax: read-out: hGIPR Emax, % ± SEM
T2 construct: expressed in transfected cells
T2 sequence (P48546 22-466): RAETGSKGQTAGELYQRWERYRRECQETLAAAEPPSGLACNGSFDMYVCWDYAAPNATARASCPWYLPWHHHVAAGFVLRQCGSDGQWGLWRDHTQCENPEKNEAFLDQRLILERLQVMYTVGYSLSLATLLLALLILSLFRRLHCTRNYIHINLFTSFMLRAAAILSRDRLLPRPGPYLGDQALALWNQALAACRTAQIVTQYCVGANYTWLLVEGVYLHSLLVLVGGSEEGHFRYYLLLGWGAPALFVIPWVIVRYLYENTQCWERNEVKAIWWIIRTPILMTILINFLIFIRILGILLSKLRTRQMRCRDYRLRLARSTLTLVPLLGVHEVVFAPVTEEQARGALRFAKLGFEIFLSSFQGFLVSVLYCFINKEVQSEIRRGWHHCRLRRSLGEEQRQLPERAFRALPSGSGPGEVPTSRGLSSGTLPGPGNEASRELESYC
Method in brief: (§1)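 Readings of the HTRF 665/620 nm ratio, which falls as cAMP rises, were converted to nM cAMP using a standard curve after 30 min peptide exposure at 37° C.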

hGCGR = target: T3, hGCGR (Homo sapiens, UniProt P47871); assay: Functional cAMP formation (HTRF) in HEK-293 clonal cells expressing hGCGR, 0.1% bovine casein, without or with 1.0% human serum albumin; assay type: cell-based; details: geometric mean, read-out: hGCGR EC50, nM (SEM, n)
T3 construct: expressed in transfected cells
T3 sequence (P47871 26-477): as the sequence (P47871 26-477) above
Method in brief: as §1

hGLP-1R = hGLP-1R (Homo sapiens, UniProt P43220); assay: Functional cAMP formation (HTRF) in HEK-293 clonal cells expressing hGLP-1R, 0.1% bovine casein, without or with 1.0% human serum albumin; assay type: cell-based; set-up: expressed in transfected cells; details: for EC50: geometric mean, read-out: hGLP-1R EC50, nM (SEM, n)
Chain of hGLP-1R (P43220 24-463): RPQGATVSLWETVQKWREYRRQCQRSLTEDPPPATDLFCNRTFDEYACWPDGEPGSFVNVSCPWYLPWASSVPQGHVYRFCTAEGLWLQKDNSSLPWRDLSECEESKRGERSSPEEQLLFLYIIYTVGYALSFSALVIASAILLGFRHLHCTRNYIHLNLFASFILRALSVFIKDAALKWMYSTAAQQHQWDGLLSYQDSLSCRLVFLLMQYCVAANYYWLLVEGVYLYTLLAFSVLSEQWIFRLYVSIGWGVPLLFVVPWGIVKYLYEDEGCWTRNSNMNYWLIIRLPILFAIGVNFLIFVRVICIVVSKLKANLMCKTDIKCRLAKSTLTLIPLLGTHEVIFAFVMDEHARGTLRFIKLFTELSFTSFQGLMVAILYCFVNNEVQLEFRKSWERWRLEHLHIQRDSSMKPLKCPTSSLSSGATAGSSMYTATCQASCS
Method in brief: as §1

[2] = 0.1% bovine casein and 1.0% human serum albumin, 37° C.
[3] = HEK293, 0.1% bovine casein and 1.0% human serum albumin, 37° C., percent of maximal response to GIP(1-42)NH2
[4] = HEK293, percent of maximal response to GIP(1-42)NH2, 37° C., 0.1% bovine casein, arithmetic mean
[5] = cAMP, incubated at 37° C., 0.1% bovine casein (no human serum albumin)

| SMILES | Ki [1] [nM] | EC50 (hGIPR; [2]) [nM] | Emax (hGIPR; [3]) [%] | Emax (hGIPR; [4]) [%] | EC50 (hGCGR; [2]) [nM] | EC50 (hGCGR; [5]) [nM] | EC50 (hGLP-1R; [2]) [nM] | Emax (hGLP-1R; HEK293, 0.1% bovine casein and 1.0% human serum albumin, 37° C., percent of maximal response to GLP-1(7-36)NH2, read-out: hGLP-1R Emax, % ± SEM) [%] | EC50 (hGLP-1R; [5]) [nM] | EC50 (hGIPR; [5]) [nM] |
| --- | --- | --- | --- | --- | --- | --- | --- | --- | --- | --- |
| CC[C@H](C)[C@H](NC(=O)[C@H](CC(C)C)NC(=O)[C@](C)(Cc1ccc(O)cc1)NC(=O)[C@@H](CCC(=O)O)NC(=O)[C@@H](NC(=O)[C@H](Cc1ccccc1)NC(=O)[C@H](CCC(=O)O)NC(=O)C(C)(C)NC(=O)[C@H](CCC(N)=O)NC(=O)[C@H](C)NC(=O)[C@H](CCCCNC(=O)COCCOCCNC(=O)COCCOCCNC(=O)CC[C@H](NC(=O)CCCCCCCCCCCCC(=O)O)C(=O)O)NC(=O)[C@H](CCCN)NC(=O)[C@H](CC(=O)O)NC(=O)[C@H](CC(C)C)NC(=O)[C@](C)(CC(C)C)NC(=O)[C@@H](NC(=O)[C@H](CO)NC(=O)[C@H](CCCCNC(=O)COCCOCCNC(=O)COCCOCCNC(=O)CC[C@H](NC(=O)CCCCCCCCCCCCC(=O)O)C(=O)O)NC(=O)[C@H](CC(=O)O)NC(=O)[C@H](CO)NC(=O)[C@@H](NC(=O)[C@](C)(Cc1ccccc1F)NC(=O)[C@@H](NC(=O)CNC(=O)[C@H](CCC(=O)O)NC(=O)C(C)(C)NC(=O)[C@@H](N)Cc1ccc(O)cc1)[C@@H](C)O)[C@@H](C)O)[C@@H](C)CC)[C@@H](C)CC)C(=O)N[C@@H](CCC(=O)O)C(=O)NCC(=O)NCC(=O)N1CCC[C@H]1C(=O)N[C@@H](CO)C(=O)N[C@@H](CO)C(=O)NCC(=O)N[C@@H](C)C(=O)N1CCC[C@H]1C(=O)N1CCC[C@H]1C(=O)N1CCC[C@H]1C(=O)N[C@@H](CO)C(N)=O [Example 27] | > 958 | 6.78 | 82.8 ± 1.14 | 88.8 | > 9950 | > 9950 | 70.2 | 110 ± 3.03 | – | – |
| CC[C@H](C)[C@H](NC(=O)[C@H](CC(C)C)NC(=O)[C@](C)(Cc1ccc(O)cc1)NC(=O)[C@@H](CCC(=O)O)NC(=O)[C@@H](NC(=O)[C@H](Cc1ccccc1)NC(=O)[C@H](CCC(=O)O)NC(=O)C(C)(C)NC(=O)[C@H](CCC(N)=O)NC(=O)[C@H](C)NC(=O)[C@H](CCCCNC(=O)COCCOCCNC(=O)COCCOCCNC(=O)CC[C@H](NC(=O)CCCCCCCCCCCCC(=O)O)C(=O)O)NC(=O)[C@H](CCCN)NC(=O)[C@H](CC(=O)O)NC(=O)[C@H](CC(C)C)NC(=O)[C@](C)(CC(C)C)NC(=O)[C@H](CCCCNC(=O)COCCOCCNC(=O)COCCOCCNC(=O)CC[C@H](NC(=O)CCCCCCCCCCCCC(=O)O)C(=O)O)NC(=O)[C@H](CO)NC(=O)[C@H](Cc1ccncc1)NC(=O)[C@H](CC(=O)O)NC(=O)[C@H](CO)NC(=O)[C@@H](NC(=O)[C@](C)(Cc1ccccc1F)NC(=O)[C@@H](NC(=O)CNC(=O)[C@H](CCC(=O)O)NC(=O)C(C)(C)NC(=O)[C@@H](N)Cc1ccc(O)cc1)[C@@H](C)O)[C@@H](C)O)[C@@H](C)CC)C(=O)N[C@@H](CCC(=O)O)C(=O)NCC(=O)NCC(=O)N1CCC[C@H]1C(=O)N[C@@H](CO)C(=O)N[C@@H](CO)C(=O)NCC(=O)N[C@@H](C)C(=O)N1CCC[C@H]1C(=O)N1CCC[C@H]1C(=O)N1CCC[C@H]1C(=O)N[C@@H](CO)C(N)=O [Example 28] | > 966 | 2.08 | 93 ± 7.02 | 95.4 ± 1.58 | > 9950 | > 9950 | – | – | 2.65 | – |
| CC[C@H](C)[C@H](NC(=O)[C@H](CC(C)C)NC(=O)[C@](C)(Cc1ccc(O)cc1)NC(=O)[C@@H](CCC(=O)O)NC(=O)[C@@H](NC(=O)[C@H](Cc1ccccc1)NC(=O)[C@H](CCC(=O)O)NC(=O)C(C)(C)NC(=O)[C@H](CCC(N)=O)NC(=O)[C@H](C)NC(=O)[C@H](CCCCNC(=O)COCCOCCNC(=O)COCCOCCNC(=O)[C@@H](N)CCCCNC(=O)CC[C@H](NC(=O)CCCCCCCCCCCCC(=O)O)C(=O)O)NC(=O)[C@H](CCCN)NC(=O)[C@H](CC(=O)O)NC(=O)[C@H](CC(C)C)NC(=O)[C@](C)(CC(C)C)NC(=O)[C@@H](NC(=O)[C@H](CO)NC(=O)[C@H](Cc1ccncc1)NC(=O)[C@H](CC(=O)O)NC(=O)[C@H](CO)NC(=O)[C@@H](NC(=O)[C@](C)(Cc1ccccc1F)NC(=O)[C@@H](NC(=O)CNC(=O)[C@H](CCC(=O)O)NC(=O)C(C)(C)NC(=O)[C@@H](N)Cc1ccc(O)cc1)[C@@H](C)O)[C@@H](C)O)[C@@H](C)CC)[C@@H](C)CC)C(=O)N[C@@H](CCC(=O)O)C(=O)NCC(=O)NCC(=O)N[C@@H](CCCCNC(=O)COCCOCCNC(=O)COCCOCCNC(=O)[C@@H](N)CCCCNC(=O)CC[C@H](NC(=O)CCCCCCCCCCCCC(=O)O)C(=O)O)C(=O)N[C@@H](CO)C(=O)N[C@@H](CO)C(=O)NCC(=O)N[C@@H](C)C(=O)N1CCC[C@H]1C(=O)N1CCC[C@H]1C(=O)N1CCC[C@H]1C(=O)N[C@@H](CO)C(N)=O [Example 34] | > 957 | 0.213 | 89.1 ± 2 | 97.4 ± 2.34 | > 9950 | > 9950 | 19.8 | – | 1 | 0.0148 |
